Assay results as given in PMC13372681, “A natural depsipeptide antibiotic binds the E-site of the bacterial ribosome” (Nature, 2026).
Where a SMILES comes first, the peptide text is derived from it. Bridges are numbered along the chain shown (N, C = ends). [ ]: non-standard residue; d: D form. dOrn = NCCC[C@@H](N)C(=O)O

System: Red blood cells (RBCs)
Test: Haemolysis assay
Type: cell-based
Conditions: human RBCs 1:50 in PBS pH 7.4, 37 °C, 1 h, absorbance 540 nm
Experimental: Human blood was obtained from BioIVT (USA). Red blood cells (RBCs) were separated from blood by centrifugation at 500g for 5 min. Plasma was removed and the RBCs were washed twice with 150 mM NaCl, using a volume equivalent to the removed plasma. After washing, phosphate-buffered saline (PBS) with a pH of 7.4, in a volume equal to the removed plasma, was added to create the RBC suspension. Using a Labcyte Echo acoustic dispenser (Beckman Coulter), 1 µl of the compound was added to the wells of a 96-well V-bottom plate. The final concentration of DMSO was kept at 1% (v/v), with a DMSO-only negative control included in each replicate. For the positive control, 10 µl of Triton X-100 was added, starting at a concentration of 20% and serially diluted twofold to 0.02%. RBCs were diluted 1:50 in PBS (pH 7.4), and 99 µl of this diluted solution was added to each well. The plates were incubated at 37 °C for 1 h, then centrifuged at 500g for 5 min to pellet the intact RBCs. Sixty-five microlitres of the supernatant was transferred to a clear, flat-bottom 96-well plate, and the absorbance was measured at 540 nm.

C[C@@H](O)[C@@H]1NC(=O)[C@@H](CCCNC(=N)N)NC(=O)[C@@H](CCCNC(=N)N)NC(=O)[C@@H](CC(N)=O)NC(=O)[C@@H](NC(=O)[C@@H](Cc2ccccc2)NC(=O)[C@@H](CCCN)NC(=O)[C@H](N)CCCNC(=N)N)[C@@H](C)OC(=O)[C@H](Cc2c[nH]cn2)NC1=O [MKM-A, manikomycin] (H-[dR][dOrn][dF]T[dN][dR][dR]TH; ester 4-C)
Haemolysis (256 μg/ml): <1%
